Source: BigSolDB 2.1

Conditions: in water

| Compound | solubility (mole fraction) (279.15 K) | solubility (mole fraction) (281.15 K) | solubility (mole fraction) (284.15 K) | solubility (mole fraction) (289.15 K) | solubility (mole fraction) (291.15 K) | solubility (mole fraction) (293.15 K) | solubility (mole fraction) (298.15 K) | solubility (mole fraction) (302.15 K) | solubility (mole fraction) (304.15 K) | solubility (mole fraction) (307.15 K) | solubility (mole fraction) (310.15 K) | solubility (mole fraction) (316.15 K) | solubility (mole fraction) (317.15 K) | solubility (mole fraction) (318.15 K) | solubility (mole fraction) (323.15 K) | solubility (mole fraction) (327.65 K) | solubility (mole fraction) (336.15 K) | solubility (mole fraction) (342.15 K) | solubility (mole fraction) (320.15 K) | solubility (mole fraction) (327.15 K) | other results |
| --- | --- | --- | --- | --- | --- | --- | --- | --- | --- | --- | --- | --- | --- | --- | --- | --- | --- | --- | --- | --- | --- |
| O=C(O)CCCC(=O)O | 0.0734 | 0.0784 | 0.085 | 0.118 | 0.129 | 0.139 | 0.16 | 0.189 | 0.2 | 0.216 | 0.236 | 0.281 | 0.287 | 0.289 | 0.327 | 0.355 | 0.478 | 0.537 | – | – | solubility (mole fraction) (286.15 K): 0.101; solubility (mole fraction) (312.15 K): 0.249; solubility (mole fraction) (320.55 K): 0.308; solubility (mole fraction) (329.15 K): 0.398; solubility (mole fraction) (332.15 K): 0.419; solubility (mole fraction) (334.25 K): 0.424 |
| O=C(O)CCCCCC(=O)O | 0.00204 | 0.00211 | 0.00245 | 0.00417 | 0.00474 | 0.00568 | 0.00756 | 0.00906 | 0.00994 | 0.0113 | 0.0132 | 0.0364 | – | 0.0464 | 0.0776 | – | – | 0.328 | – | – | solubility (mole fraction) (297.15 K): 0.00738; solubility (mole fraction) (313.15 K): 0.0186; solubility (mole fraction) (320.65 K): 0.0584; solubility (mole fraction) (327.98 K): 0.14; solubility (mole fraction) (333.15 K): 0.189; solubility (mole fraction) (337.65 K): 0.261 |
| O=C(O)c1ccccc1O | – | – | – | – | – | – | 0.000333 | – | – | 0.000441 | – | – | 0.000572 | 0.000677 | 0.000742 | – | – | – | 0.000672 | 0.000934 | solubility (mole fraction) (283.15 K): 0.0002; solubility (mole fraction) (324.15 K): 0.000785; solubility (mole fraction) (325.15 K): 0.000847; solubility (mole fraction) (328.15 K): 0.000964; solubility (mole fraction) (330.65 K): 0.00111; solubility (mole fraction) (334.65 K): 0.00131; solubility (mole fraction) (339.15 K): 0.00149 |
| O=C(O)c1ccco1 | 0.00411 | – | 0.00462 | 0.00483 | – | – | 0.00796 | 0.0099 | – | 0.0125 | – | – | 0.0257 | – | 0.0513 | 0.074 | 0.199 | – | – | 0.0722 | solubility (mole fraction) (280.15 K): 0.00414; solubility (mole fraction) (283.65 K): 0.00431; solubility (mole fraction) (285.15 K): 0.00471; solubility (mole fraction) (294.15 K): 0.00633; solubility (mole fraction) (301.15 K): 0.00886; solubility (mole fraction) (309.15 K): 0.013; solubility (mole fraction) (311.15 K): 0.0154; solubility (mole fraction) (315.15 K): 0.0231; solubility (mole fraction) (319.8 K): 0.031; solubility (mole fraction) (325.15 K): 0.0664; solubility (mole fraction) (328.15 K): 0.0907; solubility (mole fraction) (330.65 K): 0.128; solubility (mole fraction) (333.2 K): 0.144; solubility (mole fraction) (334.55 K): 0.144; solubility (mole fraction) (341.15 K): 0.262 |
| O=C(O)c1ccccc1C(=O)O | – | – | – | – | – | – | 0.000761 | – | – | 0.00107 | – | – | 0.00164 | 0.00164 | 0.00223 | – | – | – | 0.00205 | 0.00248 | solubility (mole fraction) (283.65 K): 0.000284; solubility (mole fraction) (296.15 K): 0.000709; solubility (mole fraction) (302.65 K): 0.000935; solubility (mole fraction) (309.15 K): 0.00119; solubility (mole fraction) (311.15 K): 0.00126; solubility (mole fraction) (315.15 K): 0.00151; solubility (mole fraction) (319.15 K): 0.00181; solubility (mole fraction) (334.15 K): 0.00323; solubility (mole fraction) (338.15 K): 0.004 |
